In PMC8819633 (Journal of medicinal chemistry, 2021):

Columns and labels:
[1] = system: total AKT (T-AKT) and phosphorylated AKT (P-AKT (S473)); experiment: Western blot of AKT degradation in BT474 cells; type: cell-based, human; conditions: for T-AKT and P-AKT protein degradation (western blot): 24 h, 1, 5 and 10 μM (12-13: 1, 3 and 10 μM); for T-AKT and P-AKT degradation: 1 μM; for T-AKT and P-AKT degradation / extent of T-AKT degradation in concentration-response / T-AKT protein level (western blot): 24 h; for extent of T-AKT degradation in concentration-response: indicated concentrations; for T-AKT protein level (western blot): controls at 1 μM
[2] = system: P-PRAS40 (T246) and P-S6 (S240/244); experiment: Western blot of downstream signaling inhibition in BT474 cells; type: cell-based, human; conditions: 24 h, compared with GDC-0068 (1 μM)

Molecule | T-AKT and P-AKT protein degradation (western blot) [1] | also measured
3-(((S)-2-(4-Chlorophenyl)-3-(4-((5R,7R)-7-hydroxy-5-methyl-6,7-dihydro-5H-cyclopenta[d]pyrimidin-4-yl)piperazin-1-yl)-3-oxopropyl)amino)-N-(2-(2-((2-(2,6-dioxopiperidin-3-yl)-1,3-dioxoisoindolin-4-yl)amino)ethoxy)ethyl)propenamide [Compound 14] | not very effective at all concentrations tested | 
3-(((S)-2-(4-Chlorophenyl)-3-(4-((5R,7R)-7-hydroxy-5-methyl-6,7-dihydro-5H-cyclopenta[d]pyrimidin-4-yl)piperazin-1-yl)-3-oxopropyl)amino)-N-(2-((2-(2,6-dioxopiperidin-3-yl)-1,3-dioxoisoindolin-4-yl)amino)ethyl)propenamide [Compound 19] | marginally effective in inducing AKT degradation at 1–10 μM | 
3-(((S)-2-(4-Chlorophenyl)-3-(4-((5R,7R)-7-hydroxy-5-methyl-6,7-dihydro-5H-cyclopenta[d]pyrimidin-4-yl)piperazin-1-yl)-3-oxopropyl)amino)-N-(3-((2-(2,6-dioxopiperidin-3-yl)-1,3-dioxoisoindolin-4-yl)amino)propyl)propenamide [Compound 20] | marginally effective in inducing AKT degradation at 1–10 μM | 
3-(((S)-2-(4-Chlorophenyl)-3-(4-((5R,7R)-7-hydroxy-5-methyl-6,7-dihydro-5H-cyclopenta[d]pyrimidin-4-yl)piperazin-1-yl)-3-oxopropyl)amino)-N-(4-((2-(2,6-dioxopiperidin-3-yl)-1,3-dioxoisoindolin-4-yl)amino)butyl)propenamide [Compound 21] | marginally effective in inducing AKT degradation at 1–10 μM | 
3-(((S)-2-(4-Chlorophenyl)-3-(4-((5R,7R)-7-hydroxy-5-methyl-6,7-dihydro-5H-cyclopenta[d]pyrimidin-4-yl)piperazin-1-yl)-3-oxopropyl)amino)-N-(5-((2-(2,6-dioxopiperidin-3-yl)-1,3-dioxoisoindolin-4-yl)amino)pentyl)propenamide [Compound 22] | marginally effective in inducing AKT degradation at 1–10 μM | 
3-(((S)-2-(4-Chlorophenyl)-3-(4-((5R,7R)-7-hydroxy-5-methyl-6,7-dihydro-5H-cyclopenta[d]pyrimidin-4-yl)piperazin-1-yl)-3-oxopropyl)amino)-N-(6-((2-(2,6-dioxopiperidin-3-yl)-1,3-dioxoisoindolin-4-yl)amino)hexyl)propenamide [Compound 23] | highly effective in reducing T-AKT and P-AKT protein levels | 
3-(((S)-2-(4-Chlorophenyl)-3-(4-((5R,7R)-7-hydroxy-5-methyl-6,7-dihydro-5H-cyclopenta[d]pyrimidin-4-yl)piperazin-1-yl)-3-oxopropyl)amino)-N-(7-((2-(2,6-dioxopiperidin-3-yl)-1,3-dioxoisoindolin-4-yl)amino)heptyl)propenamide [Compound 24] | highly effective in reducing T-AKT and P-AKT protein levels | 
3-(((S)-2-(4-Chlorophenyl)-3-(4-((5R,7R)-7-hydroxy-5-methyl-6,7-dihydro-5H-cyclopenta[d]pyrimidin-4-yl)piperazin-1-yl)-3-oxopropyl)amino)-N-(8-((2-(2,6-dioxopiperidin-3-yl)-1,3-dioxoisoindolin-4-yl)oxy)octyl)propenamide [Compound 29] | maintained the excellent AKT degradation | inhibition of downstream signaling, P-PRAS40 and P-S6 [2]: maintained the excellent AKT degradation and downstream signaling inhibition effects; T-AKT and P-AKT degradation [1]: > 95%
3-(((S)-2-(4-Chlorophenyl)-3-(4-((5R,7R)-7-hydroxy-5-methyl-6,7-dihydro-5H-cyclopenta[d]pyrimidin-4-yl)piperazin-1-yl)-3-oxopropyl)amino)-N-(8-((2-(2,6-dioxopiperidin-3-yl)-1-oxoisoindolin-4-yl)amino)octyl)propenamide [Compound 28] | completely abolished AKT degradation activity | 
3-(((S)-2-(4-Chlorophenyl)-3-(4-((5R,7R)-7-hydroxy-5-methyl-6,7-dihydro-5H-cyclopenta[d]pyrimidin-4-yl)piperazin-1-yl)-3-oxopropyl)amino)-N-(9-(2-(2,6-dioxopiperidin-3-yl)-1,3-dioxoisoindolin-4-yl)nonyl)propenamide [Compound 27] | maintained the excellent AKT degradation | inhibition of downstream signaling, P-PRAS40 and P-S6 [2]: maintained the excellent AKT degradation and downstream signaling inhibition effects; T-AKT and P-AKT degradation [1]: > 95%
Cc1ncsc1-c1ccc(CNC(=O)[C@@H]2C[C@@H](O)CN2C(=O)[C@@H](NC(=O)COCCNC(=O)CCNC[C@@H](C(=O)N2CCN(c3ncnc4c3[C@H](C)C[C@H]4O)CC2)c2ccc(Cl)cc2)C(C)(C)C)cc1 [Compound 3, (2S,4R)-1-((2S,15S)-2-(tert-Butyl)-15-(4-chlorophenyl)-16-(4-((5R,7R)-7-hydroxy-5-methyl-6,7-dihydro-5H-cyclopenta[d]-pyrimidin-4-yl)piperazin-1-yl)-4,10,16-trioxo-6-oxa-3,9,13-triaza-hexadecanoyl)-4-hydroxy-N-(4-(4-methylthiazol-5-yl)benzyl)-pyrrolidine-2-carboxamide] | induced significant T-AKT and P-AKT protein degradation at concentrations of 5 and 10 μM | inhibition of downstream signaling, P-PRAS40 and P-S6 [2]: less than GDC-0068
Cc1ncsc1-c1ccc(CNC(=O)[C@@H]2C[C@@H](O)CN2C(=O)[C@@H](NC(=O)COCCOCCNC(=O)CCNC[C@@H](C(=O)N2CCN(c3ncnc4c3[C@H](C)C[C@H]4O)CC2)c2ccc(Cl)cc2)C(C)(C)C)cc1 [Compound 4, (2S,4R)-1-((2S,18S)-2-(tert-Butyl)-18-(4-chlorophenyl)-19-(4-((5R,7R)-7-hydroxy-5-methyl-6,7-dihydro-5H-cyclopenta[d]-pyrimidin-4-yl)piperazin-1-yl)-4,13,19-trioxo-6,9-dioxa-3,12,16-tri-azanonadecanoyl)-4-hydroxy-N-(4-(4-methylthiazol-5-yl)benzyl)-pyrrolidine-2-carboxamide] | less effective in AKT degradation | 
Cc1ncsc1-c1ccc(CNC(=O)[C@@H]2C[C@@H](O)CN2C(=O)[C@@H](NC(=O)CCCCNC(=O)CCNC[C@@H](C(=O)N2CCN(c3ncnc4c3[C@H](C)C[C@H]4O)CC2)c2ccc(Cl)cc2)C(C)(C)C)cc1 [Compound 6, (2S,4R)-1-((S)-2-(5-(3-(((S)-2-(4-Chlorophenyl)-3-(4-((5R,7R)-7-hydroxy-5-methyl-6,7-dihydro-5H-cyclopenta[d]pyrimidin-4-yl)-piperazin-1-yl)-3-oxopropyl)amino)propanamido)pentanamido)-3,3-dimethylbutanoyl)-4-hydroxy-N-(4-(4-methylthiazol-5-yl)-benzyl)pyrrolidine-2-carboxamide] | concentration-dependently reduced the protein levels of T-AKT and P-AKT | 
Cc1ncsc1-c1ccc([C@H](C)NC(=O)[C@H]2C[C@H](O)CN2C(=O)[C@@H](NC(=O)CCCCCCCCCCC(=O)NCCNC[C@@H](C(=O)N2CCN(c3ncnc4c3[C@H](C)C[C@H]4O)CC2)c2ccc(Cl)cc2)C(C)(C)C)cc1 [Compound 61, N^1-(2-(((S)-2-(4-Chlorophenyl)-3-(4-((5R,7R)-7-hydroxy-5-methyl-6,7-dihydro-5H-cyclopenta[d]pyrimidin-4-yl)piperazin-1-yl)-3-oxopropyl)amino)ethyl)-N^12-((S)-1-((2R,4S)-4-hydroxy-2-(((S)-1-(4-(4-methylthiazol-5-yl)phenyl)ethyl)carbamoyl)pyrrolidin-1-yl)-3,3-dimethyl-1-oxobutan-2-yl)dodecanediamide] |  | extent of T-AKT degradation in concentration-response [1]: did not degrade T-AKT
C[C@@H]1C[C@@H](O)c2ncnc(N3CCN(C(=O)[C@H](CNCCC(=O)NCCCCCCCCNc4cccc5c4C(=O)N(C4CCC(=O)N(C)C4=O)C5=O)c4ccc(Cl)cc4)CC3)c21 (stereo partly drawn) [Compound 62, 3-(((S)-2-(4-Chlorophenyl)-3-(4-((5R,7R)-7-hydroxy-5-methyl-6,7-dihydro-5H-cyclopenta[d]pyrimidin-4-yl)piperazin-1-yl)-3-oxopropyl)amino)-N-(8-((2-(1-methyl-2,6-dioxopiperidin-3-yl)-1,3-dioxoisoindolin-4-yl)amino)octyl)propenamide] |  | extent of T-AKT degradation in concentration-response [1]: did not degrade T-AKT
Nc1cccc2c1C(=O)N(C1CCC(=O)NC1=O)C2=O (centres unmarked) [POM, pomalidomide, reference compound] |  | T-AKT protein level (western blot) [1]: no detectable effect on the T-AKT protein level
Cc1ncsc1-c1ccc(CNC(=O)[C@@H]2C[C@@H](O)CN2C(=O)[C@@H](N)C(C)(C)C)cc1 [VHL-1, reference compound] |  | T-AKT protein level (western blot) [1]: no detectable effect on the T-AKT protein level
(2S,4R)-1-((2S,25S)-2-(tert-Butyl)-25-(4-chlorophenyl)-26-(4-((5R,7R)-7-hydroxy-5-methyl-6,7-dihydro-5H-cyclopenta[d]-pyrimidin-4-yl)piperazin-1-yl)-4,20,26-trioxo-7,10,13,16-tetraoxa-3,19,23-triazahexacosanoyl)-4-hydroxy-N-(4-(4-methylthiazol-5-yl)benzyl)pyrrolidine-2-carboxamide [Compound 5] | less effective in AKT degradation | 
